Where “and” joins values, the source holds several entries; their conditions need not be identical. Equal entries are not always repeated. Toxic doses and inconclusive results are not listed. No stated cut-off is given here; in the data, active means T/C of 150% or more; inactive means T/C below 125%.
System: L1210 leukemia ip in BDF1 mice, survival T/C
Assay: NCI In Vivo Anticancer Drug Screen. Data for tumor model L1210 Leukemia (intraperitoneal) in B6D2F1 (BDF1) mice
Conditions: endpoint: mean survival time, higher = longer survival
In short: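 Transplanted-tumor mice were given test agent; controls received vehicle only. Survival readings from the two groups were divided (treated over control).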

[1] = dose: 100.0 mg/kg/injection, schedule: Q01DX001 (ip), vehicle: saline with Tween-80
[2] = dose: 200.0 mg/kg/injection, schedule: Q01DX001 (ip), vehicle: saline with Tween-80
[3] = dose: 100.0 mg/kg/injection, schedule: Q04DX003 (ip), vehicle: Klucel (hydroxypropylcellulose) (HPC)
[4] = dose: 200.0 mg/kg/injection, schedule: Q04DX003 (ip), vehicle: Klucel (hydroxypropylcellulose) (HPC)
[5] = dose: 400.0 mg/kg/injection, schedule: Q04DX003 (ip), vehicle: Klucel (hydroxypropylcellulose) (HPC)
[6] = dose: 100.0 mg/kg/injection, schedule: Q01DX001 (ip), vehicle: carboxymethylcellulose (CMC)
[7] = dose: 200.0 mg/kg/injection, schedule: Q01DX001 (ip), vehicle: carboxymethylcellulose (CMC)
[8] = dose: 400.0 mg/kg/injection, schedule: Q01DX001 (ip), vehicle: carboxymethylcellulose (CMC)
[9] = dose: 25.0 mg/kg/injection, schedule: Q04DX002 (ip), vehicle: saline with Tween-80
[10] = dose: 100.0 mg/kg/injection, schedule: Q01DX001 (ip), vehicle: saline
[11] = dose: 200.0 mg/kg/injection, schedule: Q01DX001 (ip), vehicle: saline
[12] = dose: 400.0 mg/kg/injection, schedule: Q01DX001 (ip), vehicle: saline
[13] = dose: 400.0 mg/kg/injection, schedule: Q04DX002 (ip), vehicle: saline with Tween-80
[14] = dose: 100.0 mg/kg/injection, schedule: Q04DX003 (ip), vehicle: saline with Tween-80
[15] = dose: 200.0 mg/kg/injection, schedule: Q04DX003 (ip), vehicle: saline with Tween-80
[16] = dose: 400.0 mg/kg/injection, schedule: Q04DX003 (ip), vehicle: saline with Tween-80

Measured: T/C

O=C(C1=CCCC1)C1=CCCC1
inactive: dose: 50.0 mg/kg/injection, schedule: Q01DX001 (ip), vehicle: saline with Tween-80 99 % of control | [1] 105 % of control | [2] 99 % of control

Nc1nc2nc(N=Nc3ccc(C(=O)O)cc3)[nH]c2c(=O)[nH]1
inactive: [3] 96 % of control | [4] 91 % of control | [5] 99 % of control

CCOC(=O)NNC(=O)c1ccccc1
inactive: dose: 12.5 mg/kg/injection, schedule: Q01DX009 (ip), vehicle: alcohol 100 % of control | dose: 25.0 mg/kg/injection, schedule: Q01DX009 (ip), vehicle: alcohol 90 % of control | dose: 25.0 mg/kg/injection, schedule: Q04DX003 (ip), vehicle: alcohol 103 % of control | dose: 50.0 mg/kg/injection, schedule: Q01DX009 (ip), vehicle: alcohol 89 % of control | dose: 50.0 mg/kg/injection, schedule: Q04DX003 (ip), vehicle: alcohol 101 % of control

Cc1ccc([N+](=O)[O-])cc1NC(=O)NCc1cccnc1
inactive: dose: 100.0 mg/kg/injection, schedule: Q01DX009 (ip), vehicle: Klucel (hydroxypropylcellulose) (HPC) 95 % of control | dose: 200.0 mg/kg/injection, schedule: Q01DX009 (ip), vehicle: Klucel (hydroxypropylcellulose) (HPC) 87 % of control | dose: 400.0 mg/kg/injection, schedule: Q01DX009 (ip), vehicle: Klucel (hydroxypropylcellulose) (HPC) 92 % of control

Nc1ncccc1C(=O)O
inactive: dose: 62.5 mg/kg/injection, schedule: Q01DX010 (ip), vehicle: saline 96 % of control and 100 % of control | [6] 101 % of control | dose: 125.0 mg/kg/injection, schedule: Q01DX010 (ip), vehicle: saline 93 % of control and 109 % of control | [7] 98 % of control | dose: 250.0 mg/kg/injection, schedule: Q01DX010 (ip), vehicle: saline 102 % of control and 90 % of control | [8] 95 % of control | dose: 500.0 mg/kg/injection, schedule: Q01DX010 (ip), vehicle: saline 100 % of control and 90 % of control

CC(C)C(CN=C(N)N)c1cccc2ccccc12 (centres undefined)
inactive: dose: 12.5 mg/kg/injection, schedule: Q01DX009 (ip), vehicle: saline with Tween-80 100 % of control | dose: 25.0 mg/kg/injection, schedule: Q01DX009 (ip), vehicle: saline with Tween-80 103 % of control | [9] 100 % of control | dose: 50.0 mg/kg/injection, schedule: Q01DX009 (ip), vehicle: saline with Tween-80 91 % of control | dose: 50.0 mg/kg/injection, schedule: Q04DX002 (ip), vehicle: saline with Tween-80 100 % of control

O=[N+]([O-])c1ccc(OCCOc2ccc([N+](=O)[O-])cc2)cc1
inactive: [10] 103 % of control | [11] 107 % of control | [12] 97 % of control

CCCCCCCCCCCCCCCCS(=O)(=O)N/N=C/c1ccc(Cl)cc1Cl
inactive: [6] 98 % of control | [7] 101 % of control | [8] 107 % of control

c1ccc(-c2cnc(-c3ccccc3)cn2)cc1
inactive: dose: 25.6 mg/kg/injection, schedule: Q04DX002 (ip), vehicle: saline with Tween-80 112 % of control | dose: 64.0 mg/kg/injection, schedule: Q04DX002 (ip), vehicle: saline with Tween-80 96 % of control | dose: 160.0 mg/kg/injection, schedule: Q04DX002 (ip), vehicle: saline with Tween-80 93 % of control | [13] 104 % of control

O=C(c1ccccc1)c1ccsc1C(=O)O
inactive: dose: 6.25 mg/kg/injection, schedule: Q04DX002 (ip), vehicle: saline with Tween-80 94 % of control | dose: 12.5 mg/kg/injection, schedule: Q04DX002 (ip), vehicle: saline with Tween-80 97 % of control | [9] 90 % of control | dose: 200.0 mg/kg/injection, schedule: Q04DX002 (ip), vehicle: saline with Tween-80 101 % of control | [13] 89 % of control

Nc1nc(N)c2nc(CNc3ccc(Cl)cc3)cnc2n1
inactive: dose: 20.0 mg/kg/injection, schedule: Q01DX009 (ip), vehicle: Klucel (hydroxypropylcellulose) (HPC) 96 % of control | dose: 40.0 mg/kg/injection, schedule: Q01DX009 (ip), vehicle: Klucel (hydroxypropylcellulose) (HPC) 96 % of control | dose: 80.0 mg/kg/injection, schedule: Q01DX009 (ip), vehicle: Klucel (hydroxypropylcellulose) (HPC) 104 % of control

O=c1ccc([N+](=O)[O-])cn1Cc1ccccc1
inactive: [1] 114 % of control | dose: 100.0 mg/kg/injection, schedule: Q01DX009 (ip), vehicle: saline with Tween-80 106 % of control | [2] 100 % of control | dose: 200.0 mg/kg/injection, schedule: Q01DX009 (ip), vehicle: saline with Tween-80 98 % of control | dose: 400.0 mg/kg/injection, schedule: Q01DX001 (ip), vehicle: saline with Tween-80 96 % of control | dose: 400.0 mg/kg/injection, schedule: Q01DX009 (ip), vehicle: saline with Tween-80 106 % of control

OCCCC(O)CO (centres undefined)
inactive: dose: 222.0 mg/kg/injection, schedule: Q01DX Z (ip), vehicle: saline 98 % of control | dose: 333.0 mg/kg/injection, schedule: Q01DX Z (ip), vehicle: saline 111 % of control | dose: 500.0 mg/kg/injection, schedule: Q01DX Z (ip), vehicle: saline 102 % of control

CC(=O)Nc1ccc(N)cc1N
inactive: dose: 50.0 mg/kg/injection, schedule: Q04DX003 (ip), vehicle: saline 98 % of control | [14] 102 % of control | dose: 100.0 mg/kg/injection, schedule: Q04DX003 (ip), vehicle: saline 92 % of control and 89 % of control | [15] 115 % of control | dose: 200.0 mg/kg/injection, schedule: Q04DX003 (ip), vehicle: saline 98 % of control | [16] 100 % of control | dose: 400.0 mg/kg/injection, schedule: Q04DX003 (ip), vehicle: saline 89 % of control

Cc1ccc(S(=O)(=O)OCCN(CCOS(=O)(=O)c2ccc(C)cc2)c2cccc([N+](=O)[O-])c2)cc1
inactive: dose: 50.0 mg/kg/injection, schedule: Q01DX001 (ip), vehicle: saline 97 % of control | [10] 100 % of control | [11] 97 % of control | [12] 88 % of control

CC(C)OC(=O)Nc1ccc(Cl)cc1Cl
inactive: [3] 97 % of control | [4] 108 % of control | [5] 108 % of control

CSc1ccnc2c1ncn2C1OC(CO)C(O)C1O (centres undefined)
inactive: [6] 98 % of control | [7] 104 % of control | [8] 96 % of control

COC(=O)C1c2ccccc2-c2ccc(N3C(=O)C=CC3=O)cc21 (centres undefined)
inactive: [14] 107 % of control | [15] 104 % of control | [16] 115 % of control

O=C(Oc1ccc(N=Nc2ccccc2)c(C(=O)O)c1)Oc1ccc(N=Nc2ccccc2)c(C(=O)O)c1
inactive: [6] 101 % of control | [7] 98 % of control

CC1(C)CC(=O)C=C(NC2CCCCC2)C1
inactive: dose: 50.0 mg/kg/injection, schedule: Q01DX009 (ip), vehicle: saline sonified 94 % of control | dose: 100.0 mg/kg/injection, schedule: Q01DX009 (ip), vehicle: saline sonified 103 % of control | [3] 96 % of control | dose: 200.0 mg/kg/injection, schedule: Q01DX009 (ip), vehicle: saline sonified 92 % of control | [4] 98 % of control

O=[N+]([O-])c1ccc2c(c1)/C(=N\O)c1cc(F)ccc1-2
inactive: [6] 103 % of control | [7] 105 % of control | [8] 98 % of control

CCOC(=O)CNN
inactive: dose: 4.0 mg/kg/injection, schedule: Q01DX009 (ip), vehicle: saline 93 % of control | dose: 8.0 mg/kg/injection, schedule: Q01DX009 (ip), vehicle: saline 108 % of control | dose: 16.0 mg/kg/injection, schedule: Q01DX009 (ip), vehicle: saline 103 % of control | dose: 28.0 mg/kg/injection, schedule: Q01DX001 (ip), vehicle: saline 101 % of control | dose: 56.0 mg/kg/injection, schedule: Q01DX001 (ip), vehicle: saline 108 % of control | dose: 112.0 mg/kg/injection, schedule: Q01DX001 (ip), vehicle: saline 114 % of control

— PubChem BioAssay AID248 (DTP/NCI, 2004)
